Where no end group is shown, it is not given here.
Columns and labels:
myostatin = assay: C2C12 myoblast proliferation competition assay: wild type myostatin competed with antagonists; type: cell-based; conditions: antagonist 1, 5 and 10 μg/ml; myostatin 2.25 μg/ml
Protocol: […] C2C12 myoblasts were grown in Dulbecco's modified eagle medium according to the standard techniques (Thomas et al, 2000). The myoblast proliferation assay was carried out in uncoated 96-well microtitre plates. C2C12 cultures were seeded at 1000 cells/well. Following a 16-hour attachment period, test media containing either recombinant wild type myostatin or different myostatin antagonists were added and cells were incubated for a further 48 or 72 hour period. For competition assay, wild type myostatin was competed with different concentrations of myostatin antagonists prior to the addition into the media. After the incubation period, proliferation was assessed using methylene blue photometric endpoint assay as previously described (Thomas et al, 2000).

satellite cells = assay: Single muscle fibre satellite cell activation assay (PCNA labeling); type: cell-based, mice
Protocol: Single fibres were isolated as previously described Rosenblatt et al., (1995). Briefly, 1 and 24 month old wild-type mice were euthanized by CO2 gas followed by cervical dislocation. TA were dissected out and digested in 0.2% (w/v) type 1A collagenase (>260 CDU/mg, Sigma) in Dulbecco's modified Eagle medium (DMEM) (Invitrogen) for 60 minutes at 37° C. Muscles were transferred to DMEM +10% horse serum (HS) +0.5% chicken embryo extract (CEE) and fibres were separated by gentle trituration. Isolated fibres were transferred to 4 well chamber slides (Becton Dickinson) coated with 10% matrigel (Becton Dickinson) and fixed with 100% ice cold methanol for 10 minutes after culturing up to 72 hours at 37° C. in 5% CO2.
Proliferating Cell Nuclear Antigen (PCNA) is expressed in cells that are actively undergoing cell cycle but not in quiescent cells. […] However, upon activation, satellite cells are activated to express PCNA and regenerate the muscle by replenishing the muscle fibres. Thus PCNA is a very reliable antigen to marker for the activated satellite cells.
In order to determine the effect of myostatin antagonists on satellite cell activation, single muscle fibres from TA muscle of young (1 month) or old (24 month) wild type mice were cultured in presence of 5 μg/ml of myostatin antagonist 320, 310 or 300, in culture media for 24, 48 and 72 hours and fixed with methanol and washed in PBS. The fixed fibres were permeabilised in 0.5% TritonX-100 in PBS for 10 minutes, blocked in 10% normal goat serum and 0.35% carrageenan lambda in PBS for 30 minutes at room temperature then incubated with a 1:100 dilution of anti-PCNA antibody in blocker overnight. Primary antibody was detected using goat anti-mouse-alexa fluor 546 and fibres were counterstained with DAPI. PCNA positive activated satellite cells were counted under microscope and expressed as a percent of total myonuclei.

mdx mice = assay: Mdx in vivo trial
Protocol: An in vivo trial was performed in which 4 week old mdx mice were injected 3× per week with 300 (6 μg/g) or saline (10 mice in each treatment) for 4 weeks. Body weights were recorded regularly and blood was collected for creatine kinase activity to assess the extent of muscle damage. Grip tests were performed as a measure of strength. After 4 weeks of treatment mice were culled and individual hind limb muscles collected for protein expression analysis—Pax7 & MyoD (satellite cell activation/myogenesis), and histology.
Protein was extracted from three hind limb muscles, biceps femoris, tibialis anterior and gastrocnemius. 15 μg of protein was separated on 4-12% SDS PAGE, transferred to nitrocellulose membrane and immunoprobed with Pax7 and MyoD.
Ten micron transverse sections were cut from the midbelly region of each m. gastrocnemius. Muscle sections were stained with haematoxylin and eosin (H & E) to visualise and measure areas of necrosis and regeneration. These areas were analysed using an Olympus BX50 microscope (Olympus, Tokyo, Japan), a SPOT-RT 4.01 camera and software (Diagnostic Instruments, Sterling Heights, Mich.). Areas were measured using Image-Pro Plus (Media Cybernetics, Silver Spring, Md.).
Blood was collected by tail-bleeding into 75 mm heparinised microhematocrit tubes. Tubes were centrifuged in a Micro-hematocrit centrifuge (Adams) for 5 minutes and then the plasma removed. The recovered plasma was centrifuged again at 2500×g for 5 minutes and then stored at −80° C. until analysis. Plasma was separated from the red blood cells within 2 hours of blood collection to minimise hemolysis. Creatine kinase activity was determined using CK N-acetyl-L-cysteine creatine kinase kit (Beckman Coulter) within 6 weeks of plasma collection. Muscle strength was assessed using a grip strength apparatus (MK-380S, Muromachi; Tokyo, Japan) at the beginning, mid-point and end of the trial. The maximum force exerted by a mouse while being pulled backward by the tail is recorded in Newtons. The mean of three grip tests for each mouse was calculated and the mean maximal force of 10 mice per group was determined.

[1] = system: skin biopsy wound in C56b1/6 mice; assay: In vivo skin biopsy trial; conditions: 4 mm biopsy punch; 6 μg/g SC day 1, 3, 5 and 7; vs saline, particularly later time points
Protocol: C56b1/6 mice at ˜10 months of age were anesthetized, the skin at the back of the neck was shaved, and two wounds made on the skin with a 4 mm biopsy punch. The mice were injected subcutaneously with either saline or 300 myostatin antagonist at 6 μg/g of body weight at day 1, 3, 5 and 7 after injury. The mice were allowed to heal for 5, 7, 14, 21 and 28 days, after which they were culled and the skin processed for histology.
For the histology, skin samples were fixed in 10% formalin, embedded and mounted in paraffin and stained with Masson's Trichrome stain. The sections were analysed for the size of wound area for each day following the treatments, and the values plotted.

[2] = 6 μg/g 3x per week for 4 weeks, biceps femoris, tibialis anterior and gastrocnemius
[3] = m. gastrocnemius sections, H & E

myostatin antagonist 300: recombinant peptide, amino acids 267-300 of bovine myostatin, with N terminal and C terminal tag (SEQ ID NO: 6) (DFGLDCDEHSTESRCCRYPLTVDFEAFGWDWIIA; cysteine pairing not given here; also: N- and C-terminal tags; listed as Homo sapiens)
rescue of the proliferation-inhibiting effects of myostatin on myoblasts (myostatin): rescued to levels similar to those observed in the positive control | percentage of activated satellite cells (satellite cells; single fibres from old (2 year old) mice, 5 μg/ml, 24 or 48 hours): Significant increases | percentage of activated satellite cells, comparison among antagonists and times (satellite cells; single fibres from old (2 year old) mice, after 48 hours): greatest increase | number of satellite cells activated (PCNA positive nuclei) (satellite cells; single fibres from young (1 month old) wild type mice, 5 μg/ml, 24 or 48 hours): significant increase | MyoD protein level (western blot) (mdx mice; [2]): substantial upregulation | Pax7 protein level (western blot) (mdx mice; [2]): substantial upregulation | change in plasma creatine kinase activity from commencement to completion of the trial (mdx mice; 4 weeks, vs saline): larger decrease | grip strength (mdx mice; after 4 weeks of treatment): significant increase | percentage necrotic area of muscle (mdx mice; [3]): Reduced Necrosis | percentage regenerating area of muscle (mdx mice; [3]): Increased Regeneration | wound area [1]: smaller wound area

Reference: patent US8309068B2, “Isolated polypeptides and methods of improving muscle strength” (Myostin Therapeutics Pty Ltd., priority 2006, dated 2012)
